Tests used:
[1] = tested on: phosphorylation of EGFR (Tyr1068) in NCI-H1975 cell line that harbors the EGFR L858R T790M mutations; assay: NCI-H1975 pEGFR AlphaLISA assay; type: cell-based; settings: Homo sapiens, NCI-H1975, inhibition of phosphorylation of mutant EGFR in NCI-H1975 cells; 4-5 hours incubation; read-out: Ext pEGFR H1975
How it was run: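 Phospho-EGFR Tyr1068 AlphaLISA readout: lysates taken from compound-treated H1975 cells (L858R T790M EGFR) after a 4-5 h exposure at 37 °C. Cells had adhered overnight beforehand. IC50 derived by plotting % pEGFR inhibition against log compound concentration.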

[2] = tested on: pEGFR_LR/TM/G796S mutant EGFR expressing Ba/F3 cells; assay: pEGFR_LR/TM/G796S AlphaLISA assay in Ba/F3 cells; type: cell-based; settings: Mus musculus, BaF3, 4 hrs incubation, geometric mean, read-out: Ext pEGFR_LR/TM/G796S GMean IC50
Procedure: Mutant EGFR expressing Ba/F3 cells were resuspended in fresh 10% FBS RPMI and plated at 1.0×10^6 cells/mL. On the next day, the cells were harvested and diluted in fresh medium at 1.25×10^6 cells/mL. 40 μL of cells were added to each well of a 384-well microplate (Corning 3764). In a clear 384-well polypropylene microplate, test compounds and DMSO were added. DMSO was a negative control and staurosporine was a positive control. The cell plate was placed in a humidified 37° C. incubator for 4 hrs. The cell plate was spun to pellet the cells and the media was removed. 10 μL of 1×AlphaLISA Lysis Buffer with 1× protease and phosphatase inhibitors was added to the cells and plate was shaken at 600 rpm for 30 min. The cell lysates were transferred from cell plate to a white opaque 384-well microplate (OptiPlate-384). 5 μL of acceptor mix was added to the cell lysate and the plate was shaken at 600 rpm for 10 min, gently tapped and sealed with foil. It was then incubated at RT for 1.5-2 hr. Under low light conditions, lx donor mix was prepared right prior to use. 5 μL of donor mix was added to the plate under subdued lighting or green filters. The plate was shaken at 600 rpm for 10 min, gently tapped and sealed with foil. It was then incubated overnight at RT in dark. After overnight incubation, the plate was read on an EnVision Multilabel Reader. All IC50 representative curves were plotted using GraphPad Prism (version 8.00 for Windows, GraphPad Software, San Diego California USA). The percentage of inhibition on EGFR phosphorylation was calculated following equation below: […]
An IC50 was calculated by fitting the curve using Nonliner fit with log(inhibitor) vs. response−Variable slope (four parameters) model.

EGFR (L858R T790M C797S) = target: T1, EGFR (L858R T790M C797S) (Homo sapiens, UniProt P00533, C797S/L858R/T790M); assay: Biochemical EGFR inhibition assay (Caliper mobility shift), EGFR LRTMCS mutant; settings: inhibitory activity against EGFR LRTMCS mutant; apparent IC50; read-out: Ext Enz LRTMCS
T1 construct: purchased SignalChem E10-122VG
T1 sequence (P00533 25-1210 T790M/C797S/L858R): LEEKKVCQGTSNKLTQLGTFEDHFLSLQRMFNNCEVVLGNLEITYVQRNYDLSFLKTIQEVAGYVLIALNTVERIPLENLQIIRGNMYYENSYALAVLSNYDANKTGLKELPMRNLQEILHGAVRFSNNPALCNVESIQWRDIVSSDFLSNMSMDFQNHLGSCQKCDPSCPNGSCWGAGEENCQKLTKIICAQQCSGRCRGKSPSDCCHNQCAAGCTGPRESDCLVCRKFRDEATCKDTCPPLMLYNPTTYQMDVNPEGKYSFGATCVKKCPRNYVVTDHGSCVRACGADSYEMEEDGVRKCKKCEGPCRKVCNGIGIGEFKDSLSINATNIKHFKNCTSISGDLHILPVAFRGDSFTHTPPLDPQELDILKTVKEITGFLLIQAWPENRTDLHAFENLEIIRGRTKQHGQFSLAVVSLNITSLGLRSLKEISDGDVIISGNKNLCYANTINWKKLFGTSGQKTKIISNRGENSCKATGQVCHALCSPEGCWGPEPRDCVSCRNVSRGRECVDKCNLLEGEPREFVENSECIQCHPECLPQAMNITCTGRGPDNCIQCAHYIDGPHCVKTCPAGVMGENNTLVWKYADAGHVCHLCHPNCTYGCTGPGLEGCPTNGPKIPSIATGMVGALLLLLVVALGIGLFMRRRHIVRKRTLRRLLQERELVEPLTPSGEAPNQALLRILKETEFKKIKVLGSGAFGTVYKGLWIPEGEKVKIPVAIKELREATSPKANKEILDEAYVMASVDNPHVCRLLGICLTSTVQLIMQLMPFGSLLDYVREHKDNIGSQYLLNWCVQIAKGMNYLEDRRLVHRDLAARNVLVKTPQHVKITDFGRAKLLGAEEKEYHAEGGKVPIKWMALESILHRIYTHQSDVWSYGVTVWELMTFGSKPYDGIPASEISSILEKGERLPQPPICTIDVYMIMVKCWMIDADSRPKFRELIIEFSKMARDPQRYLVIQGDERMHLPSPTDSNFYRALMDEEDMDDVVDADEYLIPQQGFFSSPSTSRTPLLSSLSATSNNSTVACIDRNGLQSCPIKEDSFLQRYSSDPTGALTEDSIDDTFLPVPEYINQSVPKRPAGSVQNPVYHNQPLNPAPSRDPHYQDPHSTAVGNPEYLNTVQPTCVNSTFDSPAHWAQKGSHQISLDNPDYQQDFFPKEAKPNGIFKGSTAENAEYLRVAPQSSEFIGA
How it was run: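 Caliper mobility shift read-out: product and substrate peptides separated by electrophoresis and quantified. Reactions at 25° C. taken to 10–20% peptide phosphorylation, quenched with 35 mM EDTA. Apparent IC50 from percent activity vs log [compound].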

[3] = target: T2, EGFR (D770_N771insNPG T790M) (Homo sapiens, UniProt P00533, INS770NPG/T790M); assay: Biochemical EGFR inhibition assay (mobility shift), EGFR D770_N771insNPG T790M; settings: inhibitory activity against EGFR_D770_N771insNPG/T790M mutant; apparent IC50; read-out: Enz EGFR_D770_N771insNPG/T790M
T2 construct: purchased SignalChem E10-132TG
T2 sequence (P00533 with tags, fused parts or gaps INS770NPG/T790M limits assumed): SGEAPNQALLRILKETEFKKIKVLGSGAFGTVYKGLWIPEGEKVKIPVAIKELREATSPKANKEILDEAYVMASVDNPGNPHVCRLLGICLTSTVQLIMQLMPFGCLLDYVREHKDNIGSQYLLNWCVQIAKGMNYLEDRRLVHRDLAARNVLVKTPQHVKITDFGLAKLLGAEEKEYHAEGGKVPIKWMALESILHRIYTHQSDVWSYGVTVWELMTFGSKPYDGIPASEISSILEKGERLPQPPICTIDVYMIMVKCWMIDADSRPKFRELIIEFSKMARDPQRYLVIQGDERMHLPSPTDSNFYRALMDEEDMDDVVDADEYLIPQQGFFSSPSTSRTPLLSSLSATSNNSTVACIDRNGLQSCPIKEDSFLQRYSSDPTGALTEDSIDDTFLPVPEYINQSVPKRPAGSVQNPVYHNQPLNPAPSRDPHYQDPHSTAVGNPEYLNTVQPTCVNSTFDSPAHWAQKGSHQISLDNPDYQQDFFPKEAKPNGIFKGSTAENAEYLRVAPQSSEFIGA
Procedure: Inhibitory effects of the compounds of the disclosure were measured in biochemical assays that measure the phosphorylation activity of EGFR enzyme phosphorylates 2.5 micromolar 5-FAM-[…]-CONH2 peptide substrate (FL-Peptide 22, PerkinElmer, 760366) in the presence of adenosine-5′-triphosphate (ATP) and varying concentrations of the test compound. […] Reactions proceeded until between 10% to 20% total peptides were phosphorylated at room temperature (25° C.) and were terminated with 35 mM 2,2′,2″,2′″-(ethane-1,2-diyldinitrilo)tetraacetic acid (EDTA). EGFR enzymatic activity was monitored using the Perkin Elmer electrophoretic mobility shift technology platform (the Caliper mobility shift detection method) where the phosphorylated peptide (product) and substrate were electrophoretically separated and measured. Percent activity was plotted against log concentration of compound and points to generate an apparent IC50. The following enzyme forms of EGFR were examples that were used in these assays: • EGFR WT (SignalChem, E10-112G) • EGFR (L858R T790M C797S) (SignalChem, E10-122VG) • EGFR (d746-750) T790M C797S (SignalChem, E10-122UG) • EGFR L858R (SignalChem, E10-122BG) • EGFR (d746-750) (SignalChem, E10-122JG) • EGFR (D770_N771insNPG T790M) (SignalChem, E10-132TG) • EGFR (D770_N771insNPG) (SignalChem, E10-132GG)

**Q.** How did the IC50 [1] turn out when `[2H]C([2H])([2H])O[C@@H]1CCN(c2nccc(Nc3cc4c(C(C)C)ccc(N5C[C@H](CS(C)(=O)=O)[C@H]5C)c4cn3)n2)C[C@@H]1F` (single isomer, unassigned) [Compound 282] was run?
**A.** Its IC50 is at most 10 nM.

**Q.** What about the IC50 [2] of the same compound?
**A.** Its IC50 is 20.1 to 100 nM.

**Q.** `[2H]C([2H])([2H])O[C@H]1CCN(c2nccc(Nc3cc4c(C(C)C)ccc(N5C[C@H](CS(C)(=O)=O)[C@H]5C)c4cn3)n2)C[C@H]1F` (single isomer, unassigned) [Compound 283] was tested. Which IC50 [1] did it give?
**A.** The IC50 was at most 10 nM.

**Q.** What about the IC50 [2] of the same compound?
**A.** The IC50 was 20.1 to 100 nM.

**Q.** Which IC50 [1] does the source give for `CC(C)c1ccc(N2CC(CS(C)(=O)=O)C2)c2cnc(Nc3ccnc(N4CC[C@@H](O)[C@@](C)(F)C4)n3)cc12` (single isomer, unassigned) [Compound 55] here?
**A.** The IC50 was at most 10 nM.

**Q.** What about the IC50 [2] of the same compound?
**A.** The IC50 was at most 20 nM.

**Q.** For `[2H]C([2H])([2H])O[C@@H]1CCN(c2nccc(Nc3cc4c(C(C)C)ncc(N5CC(CS(C)(=O)=O)C5)c4cn3)n2)C[C@@H]1F` [Compound 265, N-{2-[(3S,4R)-3-fluoro-4-(^2H3)methoxypiperidin-1-yl]pyrimidin-4-yl}-8-[3-(methanesulfonylmethyl)azetidin-1-yl]-5-(propan-2-yl)-2,6-naphthyridin-3-amine], which IC50 (EGFR (L858R T790M C797S)) is on record?
**A.** The IC50 was at most 15 nM.

**Q.** And the IC50 [1]?
**A.** The IC50 was at most 10 nM.

**Q.** And the IC50 [3]?
**A.** The IC50 was 100 to 250 nM.

**Q.** `CC(C)c1ccc(N2C[C@H](CS(C)(=O)=O)[C@H]2C)c2cnc(Nc3ccnc(N4CC[C@@](C)(O)[C@@H](F)C4)n3)cc12` (single isomer, unassigned) [Compound 117] was tested. Which IC50 (EGFR (L858R T790M C797S)) did it give?
**A.** The IC50 was at most 15 nM.

**Q.** What about the IC50 [1] of the same compound?
**A.** The IC50 was at most 10 nM.

**Q.** And the IC50 [2]?
**A.** Its IC50 is 250 to 750 nM.

**Q.** For `CC(C)c1cnc(N2CC(CS(C)(=O)=O)C2)c2cnc(Nc3ccnc(N4C[C@@H](F)[C@@H](F)C4)n3)cc12` [Compound 7, N-{2-[cis-3,4-difluoropyrrolidin-1-yl]pyrimidin-4-yl}-8-[3-(methanesulfonylmethyl)azetidin-1-yl]-5-(propan-2-yl)-2,7-naphthyridin-3-amine], which IC50 (EGFR (L858R T790M C797S)) is on record?
**A.** The IC50 was at most 15 nM.

**Q.** And the IC50 [1]?
**A.** The IC50 was 10.1 to 20 nM.

**Q.** What about the IC50 [3] of the same compound?
**A.** The IC50 was 250 to 750 nM.

**Q.** Which results are given for `CC(C)c1ccc(N2C[C@H](CS(C)(=O)=O)[C@H]2C)c2cnc(Nc3ccnc(N4CC[C@@H](O)[C@@](C)(F)C4)n3)cc12` (single isomer, unassigned) [Compound 111]?
**A.** IC50 [1]: ≤ 10 nM; IC50 [2]: 20.1 to 100 nM

**Q.** `CC(C)c1cnc(N2C[C@@H](CS(C)(=O)=O)[C@@H]2C)c2cnc(Nc3ccnc(N4CC[C@@H](O)[C@@](C)(F)C4)n3)cc12` (single isomer, unassigned) [Compound 128] was tested. Which IC50 (EGFR (L858R T790M C797S)) did it give?
**A.** The IC50 was at most 15 nM.

**Q.** And the IC50 [1]?
**A.** Its IC50 is at most 10 nM.

**Q.** And the IC50 [3]?
**A.** Its IC50 is 20.1 to 100 nM.

**Q.** Which results are given for `CC(C)c1ccc(N2C[C@H](CS(C)(=O)=O)[C@H]2C)c2cnc(Nc3ccnc(N4CC[C@](C)(O)[C@H](F)C4)n3)cc12` (single isomer, unassigned) [Compound 118]?
**A.** IC50 (EGFR (L858R T790M C797S)): ≤ 15 nM; IC50 [1]: ≤ 10 nM; IC50 [2]: 250 to 750 nM

**Q.** With `CC(C)c1cnc(N2CC(CS(C)(=O)=O)C2)c2cnc(Nc3ccnc(N4CCOCC4)n3)cc12` [Compound 2, 8-[3-(methanesulfonylmethyl)azetidin-1-yl]-N-[2-(morpholin-4-yl)pyrimidin-4-yl]-5-(propan-2-yl)-2,7-naphthyridin-3-amine] as the compound, how does the IC50 (EGFR (L858R T790M C797S)) read?
**A.** The IC50 was at most 15 nM.

**Q.** And the IC50 [1]?
**A.** The IC50 was 30.1 to 50 nM.

**Q.** What about the IC50 [3] of the same compound?
**A.** The IC50 was 250 to 750 nM.

**Q.** `CO[C@@H]1CCN(c2nccc(Nc3cc4c(C(C)C)ccc(N5C[C@H](CS(C)(=O)=O)[C@H]5C)c4cn3)n2)C[C@@H]1CO` (single isomer, unassigned) [Compound 173, [(3R,4R)-1-[4-({8-[(2R,3S)-3-(methanesulfonylmethyl)-2-methylazetidin-1-yl]-5-(propan-2-yl)isoquinolin-3-yl}amino)pyrimidin-2-yl]-4-methoxypiperidin-3-yl]methanol or [(3S,4S)-1-[4-({8-[(2R,3S)-3-(methanesulfonylmethyl)-2-methylazetidin-1-yl]-5-(propan-2-yl)isoquinolin-3-yl}amino)pyrimidin-2-yl]-4-methoxypiperidin-3-yl]methanol] was tested. Which IC50 (EGFR (L858R T790M C797S)) did it give?
**A.** Its IC50 is 15.1 to 20 nM.

**Q.** What about the IC50 [1] of the same compound?
**A.** The IC50 was 20.1 to 30 nM.

**Q.** What does the source list for `CC(C)c1ncc(N2C[C@H](CS(C)(=O)=O)[C@H]2C)c2cnc(Nc3ccnc(N4CC[C@H]5COC[C@H]54)n3)cc12` (single isomer, unassigned) [Compound 267, N-(2-((3aR,6aS)-hexahydro-1H-furo[3,4-b]pyrrol-1-yl)pyrimidin-4-yl)-5-isopropyl-8-((2R,3S)-2-methyl-3-((methylsulfonyl)methyl)azetidin-1-yl)-2,6-naphthyridin-3-amine or N-(2-((3aS,6aR)-hexahydro-1H-furo[3,4-b]pyrrol-1-yl)pyrimidin-4-yl)-5-isopropyl-8-((2R,3S)-2-methyl-3-((methylsulfonyl)methyl)azetidin-1-yl)-2,6-naphthyridin-3-amine]?
**A.** IC50 (EGFR (L858R T790M C797S)): ≤ 15 nM; IC50 [1]: ≤ 10 nM

Reference: US12172983B2, “EGFR inhibitors” (Blueprint Medicines Corporation, priority 2019, dated 2024)
